Test results taken from patent publication US10633407B2, “14-membered ketolides and methods of their preparation and use” (President and Fellows of Harvard College, priority 2014, dated 2020).
≈ marks a conversion by molar mass, not a printed value.

Assays:
Experiment in all cases: CLSI broth dilution MIC determination
Type in all cases: cell-based
[1] = test system: A. baumannii imipenem-resistant; details: Gram-negative
P. aeruginosa ATCC 27853 = details: P. aeruginosa ATCC 27853; Gram-negative
S. pyogenes ATCC 19615 = details: S. pyogenes ATCC 19615; Gram-positive
E. faecalis ATCC 29212 = details: E. faecalis ATCC 29212; Gram-positive
K. pneumoniae KPC-2 = details: Gram-negative
[2] = test system: P. aeruginosa HPA101-1477; details: Gram-negative
A. baumannii ATCC 19606 = details: A. baumannii ATCC 19606; Gram-negative
A. baumannii IMP-4 = details: Gram-negative
[3] = test system: H. influenzae Erythro >4, Azithro 1; details: H. influenzae Erythro >4, Azithro 1; Gram-negative
Text: MIC data was collected for the novel macrolides that this platform has produced against over 21 unique strains of B. subtilis, E. coli, S. aureus, S. pneumoniae, and H. influenzae, including several multidrug-resistant strains, with a special focus on macrolide resistant mechanisms (vide supra). […] CLSI standard procedures for broth dilution MIC determination were used. […] These genotypes can be constitutive or inducible.

S. aureus ATCC 29213 = details: S. aureus ATCC 29213; Gram-positive
Procedure, shortened: (§1)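 Method: CLSI broth dilution; endpoint: MIC. Macrolide controls azithromycin and solithromycin added in many cases.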

S. aureus MRSA: USA100 = details: S. aureus MRSA: USA100; Gram-positive
Procedure, shortened: as §1

E. coli NDM-1 = details: Gram-negative
Procedure, shortened: as §1

S. pneumoniae ATCC 49619 = details: S. pneumoniae ATCC 49619; Gram-positive
Procedure, shortened: as §1

H. influenzae ATCC49247 = details: Gram-negative
Procedure, shortened: as §1

[4] = test system: S. pneumoniae mef A genotype (second strain so labelled); details: Gram-positive
Procedure, shortened: as §1

E. coli ATCC 25922 = details: E. coli ATCC 25922; Gram-negative
Procedure, shortened: as §1

[5] = test system: S. pneumoniae erm B + mef A genotype; details: S. pneumoniae erm B + mef A genotype; Gram-positive
Procedure, shortened: as §1

S. aureus USA600, GISA = details: S. aureus USA600, GISA; Gram-positive
Procedure, shortened: as §1

S. aureus erm A genotype = details: S. aureus erm A genotype; Gram-positive
Procedure, shortened: as §1

S. aureus MRSA: USA300 = details: S. aureus MRSA: USA300; Gram-positive
Procedure, shortened: as §1

E. coli TEM-1 = details: E. coli TEM-1; Gram-negative
Procedure, shortened: as §1

E. coli CTX-M-14 = details: Gram-negative
Procedure, shortened: as §1

K. pneumoniae TEM-10 = details: Gram-negative
[6] = test system: E. faecalis Vancomycin-resistant; details: E. faecalis Vancomycin-resistant; Gram-positive
K. pneumoniae ATCC 10031 = details: K. pneumoniae ATCC 10031; Gram-negative
[7] = test system: S. pyogenes Macrolide-resistant; details: S. pyogenes Macrolide-resistant; Gram-positive
K. pneumoniae SHV-12 = details: Gram-negative
[8] = test system: A. baumannii chromosomal class C; details: Gram-negative

CC[C@H]1OC(=O)[C@@](C)(F)C(=O)[C@H](C)[C@@H](O[C@@H]2OC(C)CC(N(C)C)C2O)[C@](C)(OC)C[C@@H](C)C(=O)[C@H](C)[C@H]2N(C/C=C/Cn3nnc(-c4ccccn4)n3)C(=O)O[C@]12C (stereo partly shown) [FSM-100389]
MIC [1]: 16 µg/mL (≈ 19.3 µM)
MIC (P. aeruginosa ATCC 27853): > 32 µg/mL
MIC (S. pyogenes ATCC 19615): < 0.0312 µg/mL
MIC (E. faecalis ATCC 29212): < 0.0312 µg/mL
MIC (K. pneumoniae KPC-2): > 32 µg/mL
MIC [2]: > 32 µg/mL
MIC (A. baumannii ATCC 19606): 16 µg/mL (≈ 19.3 µM)
MIC (A. baumannii IMP-4): > 32 µg/mL
MIC [3]: 1 µg/mL (≈ 1.2 µM)
MIC (S. aureus ATCC 29213): < 0.0312 µg/mL
MIC (S. aureus MRSA: USA100): > 32 µg/mL
MIC (E. coli NDM-1): > 32 µg/mL
MIC (S. pneumoniae ATCC 49619): < 0.0312 µg/mL
MIC (H. influenzae ATCC49247): 1 µg/mL (≈ 1.2 µM)
MIC [4]: < 0.0312 µg/mL
MIC (E. coli ATCC 25922): 32 µg/mL (≈ 38.6 µM)
MIC [5]: 0.0625 µg/mL
MIC (S. aureus USA600, GISA): > 32 µg/mL
MIC (S. aureus erm A genotype): > 32 µg/mL
MIC (S. aureus MRSA: USA300): 2 µg/mL (≈ 2.41 µM)
MIC (E. coli TEM-1): 32 µg/mL (≈ 38.6 µM)
MIC (E. coli CTX-M-14): > 32 µg/mL
MIC (K. pneumoniae TEM-10): > 32 µg/mL
MIC [6]: > 32 µg/mL
MIC (K. pneumoniae ATCC 10031): 4 µg/mL (≈ 4.82 µM)
MIC [7]: < 0.0312 µg/mL
MIC (K. pneumoniae SHV-12): > 32 µg/mL
MIC [8]: 32 µg/mL (≈ 38.6 µM)

CC[C@H]1OC(=O)[C@H](C)C(=O)[C@H](C)[C@@H](O[C@@H]2OC(C)CC(N(C)C)C2O)[C@](C)(OC)C[C@@H](C)C(=O)[C@H](C)[C@H]2N(C/C=C\Cn3cc(-c4cccc(N)c4)nn3)C(=O)O[C@]12C (stereo partly shown) [FSM-100423]
MIC [1]: 32 µg/mL (≈ 38.8 µM)
MIC (P. aeruginosa ATCC 27853): > 32 µg/mL
MIC (S. pyogenes ATCC 19615): < 0.0312 µg/mL
MIC (E. faecalis ATCC 29212): < 0.0312 µg/mL
MIC (K. pneumoniae KPC-2): > 32 µg/mL
MIC [2]: > 32 µg/mL
MIC (A. baumannii ATCC 19606): 32 µg/mL (≈ 38.8 µM)
MIC (A. baumannii IMP-4): > 32 µg/mL
MIC [3]: 4 µg/mL (≈ 4.85 µM)
MIC (S. aureus ATCC 29213): 0.125 µg/mL (≈ 0.152 µM)
MIC (S. aureus MRSA: USA100): > 32 µg/mL
MIC (E. coli NDM-1): > 32 µg/mL
MIC (S. pneumoniae ATCC 49619): < 0.0312 µg/mL
MIC (H. influenzae ATCC49247): 2 µg/mL (≈ 2.42 µM)
MIC [4]: < 0.0312 µg/mL
MIC (E. coli ATCC 25922): > 32 µg/mL
MIC [5]: 0.0625 µg/mL
MIC (S. aureus USA600, GISA): > 32 µg/mL
MIC (S. aureus erm A genotype): > 32 µg/mL
MIC (S. aureus MRSA: USA300): > 32 µg/mL
MIC (E. coli TEM-1): > 32 µg/mL
MIC (E. coli CTX-M-14): > 32 µg/mL
MIC (K. pneumoniae TEM-10): > 32 µg/mL
MIC [6]: > 32 µg/mL
MIC (K. pneumoniae ATCC 10031): 16 µg/mL (≈ 19.4 µM)
MIC [7]: < 0.0312 µg/mL
MIC (K. pneumoniae SHV-12): > 32 µg/mL
MIC [8]: 32 µg/mL (≈ 38.8 µM)

CC[C@H]1OC(=O)[C@H](C)C(=O)[C@H](C)[C@@H](O[C@@H]2OC(C)CC(N(C)C)C2O)[C@](C)(OC)C[C@@H](C)C(=O)[C@H](C)[C@H]2N(CC3CC3Cn3cc(-c4cccc(N)c4)nn3)C(=O)O[C@]12C (stereo partly shown) [FSM-100429]
MIC [1]: 32 µg/mL (≈ 38.1 µM)
MIC (P. aeruginosa ATCC 27853): > 32 µg/mL
MIC (S. pyogenes ATCC 19615): < 0.0312 µg/mL
MIC (E. faecalis ATCC 29212): < 0.0312 µg/mL
MIC (K. pneumoniae KPC-2): > 32 µg/mL
MIC [2]: > 32 µg/mL
MIC (A. baumannii ATCC 19606): > 32 µg/mL
MIC (A. baumannii IMP-4): > 32 µg/mL
MIC [3]: > 32 µg/mL
MIC (S. aureus ATCC 29213): 0.125 µg/mL (≈ 0.149 µM)
MIC (S. aureus MRSA: USA100): > 32 µg/mL
MIC (E. coli NDM-1): > 32 µg/mL
MIC (S. pneumoniae ATCC 49619): < 0.0312 µg/mL
MIC (H. influenzae ATCC49247): > 32 µg/mL
MIC [4]: 0.0625 µg/mL (≈ 0.0745 µM)
MIC (E. coli ATCC 25922): > 32 µg/mL
MIC [5]: > 32 µg/mL
MIC (S. aureus USA600, GISA): > 32 µg/mL
MIC (S. aureus erm A genotype): > 32 µg/mL
MIC (S. aureus MRSA: USA300): > 32 µg/mL
MIC (E. coli TEM-1): > 32 µg/mL
MIC (E. coli CTX-M-14): > 32 µg/mL
MIC (K. pneumoniae TEM-10): > 32 µg/mL
MIC [6]: > 32 µg/mL
MIC (K. pneumoniae ATCC 10031): 32 µg/mL (≈ 38.1 µM)
MIC [7]: < 0.0312 µg/mL
MIC (K. pneumoniae SHV-12): > 32 µg/mL
MIC [8]: 32 µg/mL (≈ 38.1 µM)

CC[C@H]1OC(=O)[C@@](C)(F)C(=O)[C@H](C)[C@@H](O[C@@H]2OC(C)CC(N(C)C)C2O)[C@](C)(OC)C[C@@H](C)C(=O)[C@H](C)[C@H]2N(C/C=C\Cn3cc(-c4cccc(N)c4)nn3)C(=O)O[C@]12C (stereo partly shown) [FSM-100431]
MIC [1]: 16 µg/mL (≈ 19 µM)
MIC (P. aeruginosa ATCC 27853): > 32 µg/mL
MIC (S. pyogenes ATCC 19615): < 0.0312 µg/mL
MIC (E. faecalis ATCC 29212): < 0.0312 µg/mL
MIC (K. pneumoniae KPC-2): > 32 µg/mL
MIC [2]: > 32 µg/mL
MIC (A. baumannii ATCC 19606): 16 µg/mL (≈ 19 µM)
MIC (A. baumannii IMP-4): > 32 µg/mL
MIC [3]: > 32 µg/mL
MIC (S. aureus ATCC 29213): 0.125 µg/mL (≈ 0.148 µM)
MIC (S. aureus MRSA: USA100): > 32 µg/mL
MIC (E. coli NDM-1): > 32 µg/mL
MIC (S. pneumoniae ATCC 49619): < 0.0312 µg/mL
MIC (H. influenzae ATCC49247): > 32 µg/mL
MIC [4]: < 0.0312 µg/mL
MIC (E. coli ATCC 25922): > 32 µg/mL
MIC [5]: 8 µg/mL
MIC (S. aureus USA600, GISA): > 32 µg/mL
MIC (S. aureus erm A genotype): > 32 µg/mL
MIC (S. aureus MRSA: USA300): > 32 µg/mL
MIC (E. coli TEM-1): > 32 µg/mL
MIC (E. coli CTX-M-14): > 32 µg/mL
MIC (K. pneumoniae TEM-10): > 32 µg/mL
MIC [6]: > 32 µg/mL
MIC (K. pneumoniae ATCC 10031): 32 µg/mL (≈ 38 µM)
MIC [7]: < 0.0312 µg/mL
MIC (K. pneumoniae SHV-12): > 32 µg/mL
MIC [8]: 8 µg/mL (≈ 9.49 µM)
